This note sets out measurements from ChEMBL document CHEMBL4177636, “Design, synthesis, and biological evaluation of pyrrolobenzodiazepine-containing hypoxia-activated prodrugs” (Bioorg Med Chem Lett, 2017).

pIC50: −log10 of the molar value.

A short description of data set [1]: Prodrug activation assessed as recombinant human cytochrome P450-reductase-mediated drug metabolism by measuring (S)-7,8-dimethoxy-2-methylene-2,3-dihydro-1H-benzo[e]pyrrolo[1,2-a][1,4]diazepin-5(11aH)-one level under normoxic condition after 2 hrs by LC-MS analysis. The class given is ADME. Conditions: recombinant enzyme.
Data set [2] can be described thus: Prodrug activation assessed as recombinant human cytochrome P450-reductase-mediated drug metabolism by measuring (S)-7,8-dimethoxy-2-methylene-2,3-dihydro-1H-benzo[e]pyrrolo[1,2-a][1,4]diazepin-5(11aH)-one level under hypoxic condition after 2 hrs by LC-MS analysis. The class given is ADME. Conditions: recombinant enzyme.
Data set [3] in a line: Prodrug activation assessed as recombinant human cytochrome P450-reductase-mediated drug metabolism by measuring (11aS,11a'S)-8,8'-(pentane-1,5-diylbis(oxy))bis(7-methoxy-2-methylene-2,3-dihydro-1H-benzo[e]pyrrolo[1,2-a][1,4]diazepin-5(11aH)-one) level under normoxic condition after 2 hrs by LC-MS analysis. It counts as ADME. Conditions: recombinant enzyme.
Data set [4] in a line: Prodrug activation assessed as recombinant human cytochrome P450-reductase-mediated drug metabolism by measuring (11aS,11a'S)-8,8'-(pentane-1,5-diylbis(oxy))bis(7-methoxy-2-methylene-2,3-dihydro-1H-benzo[e]pyrrolo[1,2-a][1,4]diazepin-5(11aH)-one) level under hypoxic condition after 2 hrs by LC-MS analysis. The class given is ADME. Conditions: recombinant enzyme.
Data set [5] has as its system NCI-H460. Description: Cytotoxicity against human NCI-H460 cells after 24 hrs under hypoxic condition by luminescence-based Cell-Titer Glo assay. It counts as functional. Conditions: NCI-H460, 24 h.
The test system of data set [6] is NCI-H460. In words: Cytotoxicity against human NCI-H460 cells after 24 hrs under normoxic condition by luminescence-based Cell-Titer Glo assay. Conditions: NCI-H460, 24 h.
Data set [7] can be described thus: Selectivity index, ratio of prodrug IC50 under normoxic condition to prodrug IC50 under hypoxic condition. It counts as functional.
Data set [8] in a line: Induction of DNA (unknown origin) alkylation assessed as amount remaining of unalkylated test oligonucleotides after 18 hrs by LC/MS/UV analysis. Also on record: concentration or dose not given beside the values.
Data set [9] in a line: Prodrug activation assessed as recombinant human cytochrome P450-reductase-mediated drug metabolism by measuring (S)-7,8-dimethoxy-2-(quinolin-6-yl)-1H-benzo[e]pyrrolo[1,2-a][1,4]diazepin-5(11aH)-one level under normoxic condition after 2 hrs by LC-MS analysis. The class given is ADME. The conditions noted are these: recombinant enzyme.
Data set [10] is described as follows: Prodrug activation assessed as recombinant human cytochrome P450-reductase-mediated drug metabolism by measuring (S)-7,8-dimethoxy-2-(quinolin-6-yl)-1H-benzo[e]pyrrolo[1,2-a][1,4]diazepin-5(11aH)-one level under hypoxic condition after 2 hrs by LC-MS analysis. It counts as ADME. The conditions noted are these: recombinant enzyme.

Regarding `C=C1C[C@H]2C(O)N(C(=O)OCc3cncn3C)c3cc(OC)c(OC)cc3C(=O)N2C1` (some centres not stated), the Drug metabolism in data set [1] and in data set [2] was 0% each time.
Take `C=C1C[C@H]2C=Nc3cc(OCCCCCOc4cc5c(cc4OC)C(=O)N4CC(=C)C[C@H]4C(O)N5C(=O)OCc4cncn4C)c(OC)cc3C(=O)N2C1` (some centres not stated): the Drug metabolism in data set [3] and in [4] was 0% in each case.
Regarding `Cn1c(COP(=O)(NCCBr)NCCBr)cnc1[N+](=O)[O-]` [EVOFOSFAMIDE], the pIC50 was 8.03 in the data set with NCI-H460 [5] and 5.18 in the data set on NCI-H460 [6]. For the same compound, the Ratio IC50 in [7] came out at 715.
For `C=C1C[C@H]2C=Nc3cc(OCCCCCOc4cc5c(cc4OC)C(=O)N4CC(=C)C[C@H]4C(O)N5C(=O)OCc4cnc([N+](=O)[O-])n4C)c(OC)cc3C(=O)N2C1` (some centres not stated), the Drug metabolism in [3] and in [4] was 0% in each case. Moreover, the Activity in data set [8] turned out to be 92%. Also, the pIC50 in the data set on NCI-H460 [5] was 8.96; in the data set on NCI-H460 [6], 8.85. Besides, in data set [7], the Ratio IC50 was determined as 1.3.
`C=C1C[C@H]2C=Nc3cc(OCCCCCOc4cc5c(cc4OC)C(=O)N4CC(=C)C[C@H]4C=N5)c(OC)cc3C(=O)N2C1`: the Activity in [8] was determined as 42%. Further, the pIC50 in the data set on NCI-H460 [5] is 10.21; with NCI-H460 [6] it was 10.04. Further, the Ratio IC50 in data set [7] was found to be 1.5.
Consider `C=C1C[C@H]2C(O)N(C(=O)OCc3cnc([N+](=O)[O-])n3C)c3cc(OC)c(OC)cc3C(=O)N2C1` (some centres not stated), for which the Drug metabolism in [1] is 2%; in data set [2] it was 100%. Also, in data set [8], the Activity is 100%. Further, the results for the pIC50 with NCI-H460 [5] and in the data set with NCI-H460 [6] were 4.46 and 3.71, respectively. In addition, the Ratio IC50 in data set [7] was found to be 5.6.
For the compound `COc1cc2c(cc1OC)C(=O)N1C=C(c3ccc4ncccc4c3)C[C@H]1C=N2`, the Activity in data set [8] came to 78%. Besides, the pIC50 with NCI-H460 [5] was 9.27; in the data set on NCI-H460 [6] it was 9.11. Besides, the Ratio IC50 in [7] stood at 1.4.
In the same order, the values of `C=C1C[C@H]2C=Nc3cc(OC)c(OC)cc3C(=O)N2C1` are 84%, 6.56, 6.26 and 2.
Regarding `COc1cc2c(cc1OC)N(C(=O)OCc1cnc([N+](=O)[O-])n1C)C(O)[C@@H]1CC(c3ccc4ncccc4c3)=CN1C2=O` (some centres not stated), the figures for the Drug metabolism in data set [9] and in data set [10] were 5% and 92%, respectively. Moreover, the Activity in [8] worked out at 100%. Also, the pIC50 in the data set on NCI-H460 [5] is 7.77; with NCI-H460 [6] it was 6.63. Moreover, the Ratio IC50 in data set [7] was 13.6.

The term pIC50 denotes the negative decadic logarithm of the IC50, by convention in mol/L.
